Experimental data from patent US9206236B2, “Peptides for treating cancer” (Gene Signal International SA, priority 2010, dated 2015).

Key:
[1] = test system: human microvascular endothelial cells (HMEC); assay: In vitro angiogenesis assay (Matrigel tube formation); type: cell-based; details: 500 μg/ml final concentration of peptide, images at 18 h
Protocol: Angiogenesis of human microvascular endothelial cells (HMEC) was induced in vitro using a Matrigel assay described by Al-Mahmood et al (2009, JPET, 2009; 58:933). This method is based on the differentiation of endothelial cells to form capillary structures on a Matrigel Matrix. Matrigel is prepared the Engelbreth-Holm-Swarm (EHS) mouse tumor, which represents a complex mixture of basement membrane proteins including type IV collagen, entactin, proteo-heparan sulfate and other growth factors.
Briefly, 250 μl of Matrigel were transferred to each well of a 24-well culture plate and incubated at 37° C. for 30 min to allow for the matrix solution to solidify. HMEC grown in complete growth medium EGM-2MV were harvested by trypsin, suspended in the same growth medium and 500 μl containing 70 000 cells were added on top of the solidified Matrigel in each well and in the presence or absence of peptide. Cells were maintained in a humidified atmosphere air containing 5% CO2 at 37° C. for 18-24 hrs. Endothelial tube formation was observed and photographed under an inverted light microscope.
The designed tyrosine phosphorylated and non phosphorylated peptides were tested for their influence onto the in vitro angiogenesis. The results of the in vitro angiogenesis assay were presented in FIG. 1, using HMEC and 500 μg/ml final concentration of each peptide.

NCI-H460 tumors [2] = assay: NCI-H460 tumor xenograft in nude mice, tumor volume (Example 2); type: in vivo
Protocol: (§1) H460 cell line has cytology compatible with human Non-Small Cell Lung Cancer (NSCL). Cells were grown in MEM medium containing 10% FCS at 37° C., 5% CO2 humidified atmosphere. The absence of mycoplasms was confirmed by using the PCR Mycoplasma Detection kit (Takara). All experiments were reviewed by the Genopole's institutional animal care and use committee and were performed in accordance with institutional guidelines for animal care. Female BALB/c nu/nu mice (n=30) were used at 5-6 weeks of age. The animals were housed in laminar air-flow cabinets under pathogen-free conditions with a 12 h light/12 h dark schedule, and fed autoclaved standard chow and water ad libitum. The NCI-H460 human NSCL cell line was obtained from American Type Culture Collection (ATCC) and cells were grown in RPMI medium 1640 supplemented with 1 μM sodium pyruvate. Tumor cells (10^7 cells in 200 μl of HBSS) were injected subcutaneously into the right flanks of mice. After engraftment, tumor volume was measured by Vernier callipers, and calculated as described in Balsari A et al. (Balsari A et al. (2004) Eur J Cancer 40: 1275-1281). At tumor volume about 150 mm3, animals were randomized, and separated into five groups of five animals. Control mice (group 1) were intraperitoneally injected with vehicle (10% DMSO in buffer saline) every day. GS-0 was dissolved in vehicle and intraperitoneally injected (group 2) every day (12 injections). GS-1 was dissolved in vehicle and intraperitoneally injected (group 3) every day (12 injections). Tumor volume and body weight were measured every other day over the treatment period (12 days). GS-1 as well as the control peptide GS-0 were solubilized in DMSO and the resulting solutions were diluted 10 times with phosphate buffer saline (PBS) to obtain a concentration of 1 mg of peptide/ml of 10% DMSO in PBS. At this concentration, all peptides were soluble in 10% DMSO.

[3] = Body weight and toxicity of mice bearing NCI-H460 tumors (Example 2); type: in vivo
Protocol: All experiments were reviewed by the Genopole's institutional animal care and use committee and were performed in accordance with institutional guidelines for animal care. Female BALB/c nu/nu mice (n=30) were used at 5-6 weeks of age. The animals were housed in laminar air-flow cabinets under pathogen-free conditions with a 12 h light/12 h dark schedule, and fed autoclaved standard chow and water ad libitum. […] Tumor cells (10^7 cells in 200 μl of HBSS) were injected subcutaneously into the right flanks of mice. […] At tumor volume about 150 mm3, animals were randomized, and separated into five groups of five animals. Control mice (group 1) were intraperitoneally injected with vehicle (10% DMSO in buffer saline) every day. GS-0 was dissolved in vehicle and intraperitoneally injected (group 2) every day (12 injections). GS-1 was dissolved in vehicle and intraperitoneally injected (group 3) every day (12 injections). Tumor volume and body weight were measured every other day over the treatment period (12 days).

NCI-H460 tumors [4] = assay: NCI-H460 tumor xenograft in nude mice, tumor volume (Example 3); type: in vivo
Protocol: as §1, with “(ATCC)” for “(ATCC) and cells”, “in Balsam” for “in Balsari”, “150 mm^3,” for “150 mm3,”, “injections). GS-2” for “injections). GS-1”, “days). GS-2” for “days). GS-1”

[5] = 8 mg/kg i.p. daily for 12 days, n=5

Ac-NYICMG-NH2 [GS-0, NYICMG, reference compound]
in vitro angiogenesis-inhibitory activity [1]: have not and/or negligible in vitro angiogenesis-inhibitory activity | influence on the in vivo growth of the tumor NCI-H460 (in words) (NCI-H460 tumors [2]; 8 mg/kg i.p. daily for 12 days): no significant influence | mean tumor volume at the end of treatment (NCI-H460 tumors [2]; [5]): 1114.83 ± 534.50 mm^3 | Mean tumor volume D1 (NCI-H460 tumors [2]; Table 2, 8 mg/kg i.p. daily, day 1): 123 mm³ | Mean tumor volume D3 (NCI-H460 tumors [2]; Table 2, 8 mg/kg i.p. daily, day 3): 233 mm³ | Mean tumor volume D5 (NCI-H460 tumors [2]; Table 2, 8 mg/kg i.p. daily, day 5): 335 mm³ | Mean tumor volume D7 (NCI-H460 tumors [2]; Table 2, 8 mg/kg i.p. daily, day 7): 402 mm³ | Mean tumor volume D9 (NCI-H460 tumors [2]; Table 2, 8 mg/kg i.p. daily, day 9): 553 mm³ | Mean tumor volume D11 (NCI-H460 tumors [2]; Table 2, 8 mg/kg i.p. daily, day 11): 751 mm³ | Mean tumor volume D13 (NCI-H460 tumors [2]; Table 2, 8 mg/kg i.p. daily, day 13): 1110 mm³ | toxicity and body weight loss during treatment ([3]; 8 mg/kg intraperitoneally every day, 12 injections): No toxicity and no body weight loss | Mean body weight D1 ([3]; Table 1, 8 mg/kg i.p. daily, day 1, in g): 20.91 | Mean body weight D3 ([3]; Table 1, 8 mg/kg i.p. daily, day 3, in g): 21.37 | Mean body weight D5 ([3]; Table 1, 8 mg/kg i.p. daily, day 5, in g): 21.65 | Mean body weight D7 ([3]; Table 1, 8 mg/kg i.p. daily, day 7, in g): 21.81 | Mean body weight D9 ([3]; Table 1, 8 mg/kg i.p. daily, day 9, in g): 22.52 | Mean body weight D11 ([3]; Table 1, 8 mg/kg i.p. daily, day 11, in g): 22.76 | Mean body weight D13 ([3]; Table 1, 8 mg/kg i.p. daily, day 13, in g): 22.36 | influence on the in vivo growth of the tumor NCI-H460 (in words) (NCI-H460 tumors [4]; 8 mg/kg i.p. daily for 12 days): no significant influence | mean tumor volume at the end of treatment (NCI-H460 tumors [4]; [5]): 1114.83 ± 534.50 mm^3 | Mean tumor volume D1 (NCI-H460 tumors [4]; Table 4, 8 mg/kg i.p. daily, day 1): 123 mm³ | Mean tumor volume D3 (NCI-H460 tumors [4]; Table 4, 8 mg/kg i.p. daily, day 3): 233 mm³ | Mean tumor volume D5 (NCI-H460 tumors [4]; Table 4, 8 mg/kg i.p. daily, day 5): 335 mm³ | Mean tumor volume D7 (NCI-H460 tumors [4]; Table 4, 8 mg/kg i.p. daily, day 7): 402 mm³ | Mean tumor volume D9 (NCI-H460 tumors [4]; Table 4, 8 mg/kg i.p. daily, day 9): 553 mm³ | Mean tumor volume D11 (NCI-H460 tumors [4]; Table 4, 8 mg/kg i.p. daily, day 11): 751 mm³ | Mean tumor volume D13 (NCI-H460 tumors [4]; Table 4, 8 mg/kg i.p. daily, day 13): 1110 mm³
